This passage reports IC50 results from patent US20260193179A9 (priority 2018, published 2026).

The subject of this assay is Lectin Pathway. Nature of the assay: Lectin Pathway Activation Assay in Human Serum (mannan-coated ELISA, C3c detection). The class given is biochemical. Conditions: 1% human serum. The protocol: Microtiter ELISA plate was coated with mannan from Saccharomyces cerevisiae (Sigma-Aldrich, M7504) for overnight at 4° C. in coating buffer [15 mM Na2CO3, 35 mM NaHCO3]. Plate was blocked with 1% bovine serum albumin (BSA) (Sigma-Aldrich, A3294) in Tris-buffered Saline (TBS) [10 mM Tris-HCl, 140 mM NaCl] for 2 hours at room temperature. […] 100 μL of this mixture were then added to the plate and plate was incubated at 37° C. for up to an hour with gentle shaking, 200 rpm. After that, plate was washed thrice in wash buffer [TBS containing 5 mM CaCl2) and 0.05% Tween-20] and 100 μL of rabbit anti human C3c (Dako, A0062) diluted 1:5000 in wash buffer were added and incubated at 37° C. for 30 minutes.

pIC50: −log10 of the molar value.

What is called pIC50 is the IC50 on a negative log10 scale, so that one unit is a factor of ten. Higher therefore signals a low IC50. `C[C@H](NC(=O)[C@H](N)CCc1cccc(F)c1)C(=O)NCc1ccc(C(=N)N)cc1` [compound 1048] gave a negative-log IC50 (pIC50) of 5.30 to 7.30. `Cc1nc(N)ccc1CNC(=O)[C@H](C)NC(=O)[C@H]1C[C@@H](c2ccccc2)CCN1CC(=O)O` [compound 1398, 2-((2R,4S)-2-(((S)-1-(((6-Amino-2-methylpyridin-3-yl)methyl)amino)-1-oxopropan-2-yl)carbamoyl)-4-phenylpiperidin-1-yl)acetic acid] gave a pIC50 (mannan-coated plate) of 6.30 to 7.30.

For the molecule `CN(CC(=O)NCc1ccc(C(=N)N)cc1)C(=O)[C@H](NCC(=O)O)C1CCCCC1` [compound 1096], the pIC50 is 4.30 to 6.30. In the case of `Cc1nc(N)ccc1CNC(=O)[C@H](C)NC(=O)[C@H]1C[C@@H](c2ccccc2)CCN1CCC(=O)O` [compound 1411, 3-((2R,4S)-2-(((S)-1-(((6-Amino-2-methylpyridin-3-yl)methyl)amino)-1-oxopropan-2-yl)carbamoyl)-4-phenylpiperidin-1-yl)propanoic acid], the pIC50 (mannan-coated plate) is 6.30 to 7.30.

As to `C[C@H](NC(=O)[C@H](N)Cc1cccc2ccccc12)C(=O)NCc1ccc(C(=N)N)cc1` [compound 1092], the pIC50 is 5.30 to 7.30. Take `C[C@H](NC(=O)[C@H](N)CCc1ccc(F)cc1)C(=O)NCc1ccc(C(=N)N)cc1` [compound 1047]: the pIC50 was 5.30 to 7.30. With `COc1cc(C[C@@H]2CN[C@@H](C(=O)N[C@@H](C)C(=O)NCc3ccc(N)nc3C)C2)cc(OC)c1` [compound 1407, (2R,4S)—N—((S)-1-(((6-Amino-2-methylpyridin-3-yl)methyl)amino)-1-oxopropan-2-yl)-4-(3,5-dimethoxybenzyl)pyrrolidine-2-carboxamide], under “mannan-coated plate”, the pIC50 is 6.30 to 7.30. With `C[C@H](NC(=O)[C@H]1C[C@H](c2ccccc2)CN1)C(=O)NCc1cnc2c(c1)c(Cl)cn2C` [compound 1442, (2R,4R)—N—((S)-1-(((3-Chloro-1-methyl-1H-pyrrolo[2,3-b]pyridin-5-yl)methyl)amino)-1-oxopropan-2-yl)-4-phenylpyrrolidine-2-carboxamide], the pIC50 (mannan-coated plate) was 5.30 to 6.30.

The molecule `CC(=O)Nc1ccc(CCN[C@H](CCc2ccccc2)C(=O)N[C@@H](C)C(=O)NCc2ccc(N)nc2C)cc1` [compound 1368, (R)-2-((4-Acetamidophenethyl)amino)-N—((S)-1-(((6-amino-2-methylpyridin-3-yl)methyl)amino)-1-oxopropan-2-yl)-4-phenylbutanamide] had a pIC50 (mannan-coated plate) of 6.30 to 7.30. Still for that read-out and setting: the figure for `Cc1nc(N)ccc1CNC(=O)[C@H](C)NC(=O)[C@H]1C[C@H](Cc2cc(-c3ccccc3)cs2)CN1` [compound 1399, (2R,4R)—N—((S)-1-(((6-Amino-2-methylpyridin-3-yl)methyl)amino)-1-oxopropan-2-yl)-4-((4-phenylthiophen-2-yl)methyl)pyrrolidine-2-carboxamide] is 6.30 to 7.30. `N=C(N)c1ccc(CNC(=O)[C@@H]2CCN2C(=O)[C@H](N)C2Cc3ccccc3C2)cc1` [compound 1058, (S)-1-((R)-2-Amino-2-(2,3-dihydro-1H-inden-2-yl)acetyl)-N-(4-carbamimidoylbenzyl)azetidine-2-carboxamide] had a pIC50 of 5.30 to 7.30. In the case of `Cc1nc(N)ccc1CNC(=O)[C@H](C)NC(=O)[C@H]1C[C@H](Cc2cccc(-c3ccccc3)c2)CN1` [compound 1406, (2R,4S)-4-([1,1′-Biphenyl]-3-ylmethyl)-N—((S)-1-(((6-amino-2-methylpyridin-3-yl)methyl)amino)-1-oxopropan-2-yl)pyrrolidine-2-carboxamide], the pIC50 (mannan-coated plate) was 6.30 to 7.30.

`C[C@H](NC(=O)[C@H](N)CCc1ccccc1)C(=O)NCc1ccc(C(=N)N)cc1` [compound 1024] gave a pIC50 greater than 6.30. Regarding `Cc1nc(N)ccc1CNC(=O)[C@H](C)NC(=O)[C@H]1C[C@H](Cc2cccc(C(=O)N3CCC3)c2)CN1` [compound 1420, (2R,4S)—N—((S)-1-(((6-Amino-2-methylpyridin-3-yl)methyl)amino)-1-oxopropan-2-yl)-4-(3-(azetidine-1-carbonyl)benzyl)pyrrolidine-2-carboxamide], the pIC50 (mannan-coated plate) is 6.30 to 7.30.
